Source: patent US9776995B2, “Bicyclic sulfonamide compounds as sodium channel inhibitors” (AMGEN INC., priority 2013, dated 2017)

Target: Nav 1.7 (Homo sapiens (Human), UniProt Q15858)
Assay: Nav 1.7 in vitro PX assay (PatchXpress whole cell voltage clamp);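 note: holding potential set for 20 to 50% inactivation, sodium current evoked by a 20 ms step to −10 mV, peak current inhibition read after compound exposure, 3–5 cells per concentration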
Assay type: cell-based
[1] = HEK 293 cells stably transfected with human Nav1.7, PatchXpress, partially inactivated state
[2] = in-vitro Nav 1.7 PX (PatchXpress)

Nav 1.7, sequence (Q15858 whole entry): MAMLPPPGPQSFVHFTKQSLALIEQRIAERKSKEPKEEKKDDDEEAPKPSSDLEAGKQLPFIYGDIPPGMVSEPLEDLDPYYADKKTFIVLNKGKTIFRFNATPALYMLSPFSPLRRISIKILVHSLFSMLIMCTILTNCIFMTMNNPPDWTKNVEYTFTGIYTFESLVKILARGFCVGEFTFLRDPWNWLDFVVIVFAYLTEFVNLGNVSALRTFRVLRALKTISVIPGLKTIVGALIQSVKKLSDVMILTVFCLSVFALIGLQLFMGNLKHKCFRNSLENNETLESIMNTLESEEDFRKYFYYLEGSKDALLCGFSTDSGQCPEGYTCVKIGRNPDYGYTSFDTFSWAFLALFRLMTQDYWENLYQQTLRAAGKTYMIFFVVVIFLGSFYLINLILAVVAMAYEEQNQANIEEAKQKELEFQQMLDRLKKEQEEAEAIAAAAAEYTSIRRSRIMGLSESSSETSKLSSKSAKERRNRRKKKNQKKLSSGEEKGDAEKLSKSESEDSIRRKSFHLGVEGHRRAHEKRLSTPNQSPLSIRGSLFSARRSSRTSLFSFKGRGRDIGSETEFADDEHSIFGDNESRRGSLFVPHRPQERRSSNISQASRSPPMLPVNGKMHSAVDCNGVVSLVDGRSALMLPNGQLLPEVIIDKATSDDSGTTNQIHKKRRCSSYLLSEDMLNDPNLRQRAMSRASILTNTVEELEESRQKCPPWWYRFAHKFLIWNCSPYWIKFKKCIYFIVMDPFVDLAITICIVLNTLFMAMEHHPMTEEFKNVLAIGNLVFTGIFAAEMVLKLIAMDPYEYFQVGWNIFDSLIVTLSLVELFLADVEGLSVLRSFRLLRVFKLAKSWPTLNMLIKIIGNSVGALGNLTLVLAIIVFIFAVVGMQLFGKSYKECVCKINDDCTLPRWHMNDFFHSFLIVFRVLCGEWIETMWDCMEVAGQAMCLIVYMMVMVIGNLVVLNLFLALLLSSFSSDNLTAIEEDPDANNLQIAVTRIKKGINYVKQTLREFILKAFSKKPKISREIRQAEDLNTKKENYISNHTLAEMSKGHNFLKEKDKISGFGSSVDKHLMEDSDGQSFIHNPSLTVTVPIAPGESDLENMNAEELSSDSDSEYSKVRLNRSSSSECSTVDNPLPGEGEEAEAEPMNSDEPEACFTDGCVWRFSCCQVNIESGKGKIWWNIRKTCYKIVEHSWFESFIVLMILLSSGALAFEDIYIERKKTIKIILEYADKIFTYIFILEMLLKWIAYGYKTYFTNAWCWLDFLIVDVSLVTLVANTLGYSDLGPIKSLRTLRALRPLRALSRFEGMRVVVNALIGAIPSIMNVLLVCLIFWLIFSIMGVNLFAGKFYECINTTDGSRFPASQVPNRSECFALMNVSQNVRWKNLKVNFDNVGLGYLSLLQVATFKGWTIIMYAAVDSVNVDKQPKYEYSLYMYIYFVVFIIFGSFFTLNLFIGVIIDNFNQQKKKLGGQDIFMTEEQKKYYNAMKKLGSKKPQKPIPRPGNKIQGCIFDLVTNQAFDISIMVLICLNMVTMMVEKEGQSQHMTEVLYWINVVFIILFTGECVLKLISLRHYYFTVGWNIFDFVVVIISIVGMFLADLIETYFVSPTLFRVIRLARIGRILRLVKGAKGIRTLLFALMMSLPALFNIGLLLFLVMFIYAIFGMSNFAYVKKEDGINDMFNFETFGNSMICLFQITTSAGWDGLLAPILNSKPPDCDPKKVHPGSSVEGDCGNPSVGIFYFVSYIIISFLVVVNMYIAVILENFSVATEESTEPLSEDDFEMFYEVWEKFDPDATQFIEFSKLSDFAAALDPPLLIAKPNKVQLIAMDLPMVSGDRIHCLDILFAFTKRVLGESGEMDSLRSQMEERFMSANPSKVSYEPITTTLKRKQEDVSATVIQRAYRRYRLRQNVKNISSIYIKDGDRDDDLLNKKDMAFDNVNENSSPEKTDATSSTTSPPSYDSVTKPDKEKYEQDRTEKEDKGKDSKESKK

SMILES | IC50 [1] | also measured
COc1cc(-c2cccc(F)c2)c(Cl)cc1-c1c(O)cnc2cc(S(=O)(=O)Nc3ccon3)ccc12 (atropisomer, axis not shown; (M)) [Example 337, (M)-4-(2-chloro-3′-fluoro-5-methoxy-[1,1′-biphenyl]-4-yl)-3-hydroxy-N-(isoxazol-3-yl)quinoline-7-sulfonamide] | 0.071 µM | 
CCc1cnc2cc(S(=O)(=O)Nc3ccon3)ccc2c1-c1cc(Cl)c(-c2cccc(F)c2)cc1OC (atropisomer, axis not shown; (M)) [Example 332, (M)-4-(2-chloro-3′-fluoro-5-methoxy-[1,1′-biphenyl]-4-yl)-3-ethyl-N-(isoxazol-3-yl)quinoline-7-sulfonamide] | 33.7 µM | 
COc1cc(-c2cc(C)c(C)cc2C)c(C)cc1-c1nccc2cc(S(=O)(=O)Nc3ccon3)ccc12 [Example 275, N-3-isoxazolyl-1-(5-methoxy-2,2′,4′,5′-tetramethyl-4-biphenylyl)-6-isoquinolinesulfonamide] |  | IC50 (PatchXpress (PX)): 0.242 µM
COc1cc(-c2cc(Cl)ccc2F)c(C)cc1-c1ncnc2cc(S(=O)(=O)Nc3ccon3)ccc12 [Example 308, 4-(5′-chloro-2′-fluoro-5-methoxy-2-methyl-4-biphenylyl)-N-3-isoxazolyl-7-quinazolinesulfonamide] |  | IC50 [2]: 0.056 µM
COc1cc(C(F)(F)F)c(Cl)cc1-c1nccc2cc(S(=O)(=O)Nc3ccon3)ccc12 [Example 249, 1-(5-chloro-2-methoxy-4-(trifluoromethyl)phenyl)-N-3-isoxazolyl-6-isoquinolinesulfonamide] |  | IC50 (PatchXpress (PX)): 0.224 µM
COc1cc(-c2cccc(F)c2)c(Cl)cc1-c1c(OC)ncc2cc(S(=O)(=O)Nc3ccon3)ccc12 [Example 401, 4-(2-CHLORO-3′-FLUORO-5-METHOXY-[1,1′-BIPHENYL]-4-YL)-N-(ISOXAZOL-3-YL)-3-METHOXYISOQUINOLINE-7-SULFONAMIDE] | 0.613 µM | 
COc1cc(-c2cccc(F)c2)c(Cl)cc1-c1c(C)cnc2cc(S(=O)(=O)Nc3ccon3)ccc12 (atropisomer, axis not shown; (M)) [Example 330, (M)-4-(2-chloro-3′-fluoro-5-methoxy-[1,1′-biphenyl]-4-yl)-N-(isoxazol-3-yl)-3-methylquinoline-7-sulfonamide] | 0.496 µM | 
COc1cc(-c2cccc(F)c2)c(Cl)cc1-c1c(C#N)cnc2cc(S(=O)(=O)Nc3ccon3)ccc12 (atropisomer, axis not shown; (M)) [Example 334, (M)-4-(2-chloro-3′-fluoro-5-methoxy-[1,1′-biphenyl]-4-yl)-3-cyano-N-(isoxazol-3-yl)quinoline-7-sulfonamide] | 0.101 µM | 
COc1cc(-c2ccc(OCC(F)(F)F)nc2)ccc1-c1nccc2cc(S(=O)(=O)Nc3ccon3)ccc12 [Example 303, N-3-isoxazolyl-1-(2-methoxy-4-(6-(2,2,2-trifluoroethoxy)-3-pyridinyl)phenyl)-6-isoquinolinesulfonamide] |  | IC50 [2]: 0.48 µM
COc1cc(-c2ccc(C(F)(F)F)cc2)c(F)cc1-c1nccc2cc(S(=O)(=O)Nc3ccon3)ccc12 [Example 539, 1-(2-fluoro-5-methoxy-4′-(trifluoromethyl)-4-biphenylyl)-N-3-isoxazolyl-6-isoquinolinesulfonamide] | 0.237 µM | 
COc1nc(-c2cc(F)cc(F)c2)c(C#N)cc1-c1cccc2cc(S(=O)(=O)Nc3ccncn3)ccc12 [Example 64] |  | IC50 [2]: 0.091 µM
COc1cc(-c2cccc(F)c2F)c(C)cc1-c1ncnc2cc(S(=O)(=O)Nc3ccon3)ccc12 [Example 562, 4-(2′,3′-difluoro-5-methoxy-2-methyl-4-biphenylyl)-N-3-isoxazolyl-7-quinazolinesulfonamide] | 0.09 µM | 
COc1cc(-c2cccc(F)c2)c(Cl)cc1-c1c(C)cnc2cc(S(=O)(=O)Nc3ccon3)ccc12 (atropisomer, axis not shown; (P)) [Example 331, (P)-4-(2-chloro-3′-fluoro-5-methoxy-[1,1′-biphenyl]-4-yl)-N-(isoxazol-3-yl)-3-methylquinoline-7-sulfonamide] | 10.5 µM | 
